Data published in ChEMBL document CHEMBL4033699, “Insights into the myosin II inhibitory potency of A-ring-modified (S)-blebbistatin analogs” (Bioorg Med Chem Lett, 2017).

Experiments:
[1] = Inhibition of F-actin activated rabbit full length myosin 2 ATPase activity after 1 hr by CytoPhos reagent based assay; set-up: species or system Oryctolagus cuniculus
[2] = Solubility of the compound in Tris-HCl at pH 7.5; type: physicochemical; details: Tris-HCl buffer

| IC50 [1] [µM] | solubility [2] [µM] | Compound |
| --- | --- | --- |
| 7.97 | < 15 | O=C1c2cc3ccccc3cc2N=C2N(c3ccccc3)CC[C@@]12O |
| > 20 | < 40 | O=C1c2cc3cc[nH]c3cc2N=C2N(c3ccccc3)CC[C@@]12O |

The remaining lines, values behind:

| Compound | IC50 [1] [µM] | solubility [2] [µM] |
| --- | --- | --- |
| O=C1c2cc3c(cc2N=C2N(c4ccccc4)CC[C@@]12O)NCC3 | 14.5 | < 50 |
| C=CCN1CCc2cc3c(cc21)N=C1N(c2ccccc2)CC[C@@]1(O)C3=O | 8.46 | < 40 |
| Cc1ccc2c(c1)C(=O)[C@]1(O)CCN(c3ccccc3)C1=N2 | 1.02 | < 100 |
